In patent US11207289B2, “Use of benzofuran lignans to induce IL-25 expression and suppress mammary tumor metastasis” (ACADEMIA SINICA, priority 2016, dated 2021):

Tests used:
Jurkat cells = details: cited from earlier work
MDA-MB-231 cells = assay: MTT assay, cytotoxic effect on MDA-MB-231; format: cell-based, human
Description: (§1) M10, WI38, SKBR3, and MDA-MB-231 cells (1×10^5 cells/ml) dispensed in 96-well plates were incubated with vehicle or test compounds (Q2-3) for 24 h or 72 h in corresponding basal medium in a 5% CO2 incubator. To evaluate the effect of secreted IL-25 from Q2-3-treated fibroblasts on growth activity of mammary tumor cells, 4T1 and MDA-MB-231 cells (1×10^4 cells/ml) dispensed in 96-well plates were incubated with control medium or different fibroblast conditioned media (200 μl/ml) which was changed daily for 5 days. All treatments were performed in triplicate cell cultures. The growth activity of cells was assayed using a 3-(4, 5-dimethythiazol-2-yl)-2, 5-diphenyl tetrazolium bromide (MTT; Sigma-Aldrich) colorimetric method. The absorbance at 570 nm (A570) was measured using a multiwall scanning spectrophotometer.
FIG. 1 is a schematic depiction of cytotoxic effects of dihydrobenzofuran lignan (Q2-3) on breast tumor cells. (a): Scheme for synthesis of Q2-3 (methyl (E)-3-[2-(3,4-dihydroxyphenyl)-7-hydroxy-3-methoxycarbonyl-2,3-dihydro-1-benzofuran-5yl]prop-2-enoate) from two caffeic acid methyl ester molecules. (b) and (c): MTT assays for cytotoxic effect of Q2-3 on SKBR3 (ER^−Her^+ human breast cancer cell line), MDA-MB-231 (ER^−Her^− human breast cancer cell line), M10 (human normal epithelial cell line) and WI38 (human lung fibroblast cell line). 2×10^4 cells were seeded and compared for their growth activity after treatment with Q2-3 for 24 or 72 h. The beginning cytotoxic dosage of Q2-3 was detected at 0.3 μM, with >50% kill rate on SKBR3 and MDA-MB-231 cells.
The effects of Q2-3 on cell viability were tested on four different cell lines, i.e., normal human mammary epithelial (M10), normal human […] (WI38), and two human mammary tumor cells (SKBR3 and MDA-MB-231), by treating cells with Q2-3 at various concentrations for 24 h (FIG. 1b) and 72 h (FIG. 1c).

MDA-MB-231-Luc2 cells = assay: MDA-MD-231-Luc2 tumor resection model in nude mice: metastasis and survival; format: in vivo; details: Q2-3 100 μg/kg, DT 5 mg/kg
[1] = MTT assay, cytotoxic effect on M10; format: cell-based; details: human, M10 cells (normal human mammary epithelial cell line)
Description: as §1
FIG. 1 is a schematic depiction of cytotoxic effects of dihydrobenzofuran lignan (Q2-3) on breast tumor cells. (a): Scheme for synthesis of Q2-3 (methyl (E)-3-[2-(3,4-dihydroxyphenyl)-7-hydroxy-3-methoxycarbonyl-2,3-dihydro-1-benzofuran-5yl]prop-2-enoate) from two caffeic acid methyl ester molecules. […] The beginning cytotoxic dosage of Q2-3 was detected at 0.3 μM, with >50% kill rate on SKBR3 and MDA-MB-231 cells. […]

human IL-25 = assay: 3-D culture, western blot of IL-25 in WI38 fibroblasts and WI38-CM; format: cell-based
Description: To mimic the tumor microenvironment, a 3-dimensional (3-D) co-culture system was employed for the maintenance of mammary tumor cells and tumor-associated fibroblasts in adjacent collagen gels as reported in Rajan et al., Nature protocols, 1, 2753-2758 (2006). More specifically, rat tail collagen solution dissolved in acetic acid was neutralized by 1 N NaOH and then mixed with 10×PBS at 4° C. in a ratio of 9:1. To construct solid tumor-like cell mass, mouse (4T1 or TS/A cells) or human (MCF-7 or MDA-MB-231 cells) mammary tumor cells in each correspondent culture medium (1×10^6 cells/ml) were mixed with 4 mg/ml collagen solution in a ratio of 1:1. Four drops of collagen-tumor cell mixture ([…]) were immediately and separately loaded on culture substratum in each well of a 6-well plate. The plates were then turned-over and kept in CO2 incubator at 37° C. for collagen gelation. […]
To pull down and deplete IL-25 protein molecules in 3T3 or MDA-MB-231 cell conditioned media, the Dynabeads antibody coupling kit (Life Technology; 14311D) was used according to the manufacturer's recommendations, yielding 10 mg/ml anti-IL25 antibody (ProteinTech, Chicago, Ill.)-coupled beads. […] The antibody-pulled down proteins from 3T3-CM, NHDF-CM or WI38-CM, were detected for the content of secreted IL-25 protein in each conditioned medium using western blot analysis. […]

Structure (SMILES): COC(=O)/C=C/c1cc(O)c2c(c1)C(C(=O)OC)C(c1ccc(O)c(O)c1)O2 (stereo not drawn) [Q2-3, methyl(E)-3-[2-(3,4-dihydroxyphenyl)-7-hydroxy-3-methoxycarbonyl-2,3-dihydro-1-benzofuran-5yl]-prop-2-enoate]
- anti-proliferation effect (Jurkat cells): significant anti-proliferation effect
- inhibition at 0.5 µM (MDA-MB-231 cells; Homo sapiens, ≥0.5 μM, 24 h and 72 h, vs 0.1% DMSO control, read-out: growth inhibition): ≥ 60%
- kill rate (MDA-MB-231 cells; at 0.3 μM): > 50%
- beginning cytotoxic dosage (MDA-MB-231 cells; treatment 24 or 72 h): 0.3 µM
- survival rate (MDA-MB-231-Luc2 cells): more effective than treatment with DT
- anti-metastatic activity (luminescent activity of MDA-MB-231-Luc2 cells) (MDA-MB-231-Luc2 cells; i.v. 3 weeks post tumor resection): more effective than treatment with DT
- viability at 2 µM [1]: ≥ 80%
- expression of IL-25 in human (WI38) fibroblasts (human IL-25; 3-D culture, treatment 24 h or 72 h): increased
- level of secreted IL-25 in fibroblast-conditioned medium vs untreated (human IL-25; WI38-CM): significantly higher
